Values joined by “and” are separate entries in the source; they are usually repeats but may differ in a detail not shown here. Equal entries are not always repeated. After the bases stand the sugars from the 5' end (letter, count) and the backbone: PS all phosphorothioate, else s phosphorothioate and o phosphodiester by linkage. Methylation of C is not given here. e = 2'-O-(2-methoxyethyl) (MOE); k = constrained ethyl (cEt); d = 2'-deoxy (DNA)

The target of this series is IRF4. To be noted: ASO.

For the sequence “TCTATAGTGTTCCAGG (sugars k2 d9 e3 k2, PS)”, the target mRNA inhibition (MM.1R, 1 µM) is 50%. In the case of TCACAGAGCCAACTTA (sugars k3 d10 k3, PS), the target mRNA inhibition (SK-MEL-28, 4 µM) is -12%.

With GAACAAGTGTATCTTT (sugars k3 d10 k3, PS), the target mRNA inhibition (MM.1R, 1 µM) came out at 5%. For CTCCAACCCTAGATAA (sugars k3 d10 k3, PS), the target mRNA inhibition (SK-MEL-28, 4 µM) amounted to 2%. As for “GCAGTGATGTCAGGTT (sugars kkdddddddddkdkdk, PS)”, the target mRNA inhibition (MM.1R, 0.074 µM) was found to be 15%; the target mRNA inhibition (MM.1R, 0.222 µM) was found to be 32%; the target mRNA inhibition (MM.1R, 0.666 µM) is 58%; the target mRNA inhibition (MM.1R, 1 µM) was found to be 53%; the target mRNA inhibition (MM.1R, 2 µM) came out at 79%. As for CAACAGGCGGACACGC (sugars k3 d10 k3, PS), under “SK-MEL-28, 4 µM”, the target mRNA inhibition came to 42%.

Consider TCACACTGCCGTGATC (sugars k3 d10 k3, PS), for which the target mRNA inhibition (SK-MEL-28, 4 µM) was 22%. Take AGATCGAGCGGTGAAA (sugars k3 d10 k3, PS): the target mRNA inhibition (SK-MEL-28, 4 µM) is 24%. Consider GAAGCATAGAACAGAT (sugars k3 d10 k3, PS), for which the target mRNA inhibition (SK-MEL-28, 4 µM) turned out to be 51%. For CCCCGAGCTGCACACG (sugars k3 d10 k3, PS), for the setting “MM.1R, 1 µM”, the target mRNA inhibition was -5%. Still for that read-out and setting: in the case of ATGAGGGACCAGAACT (sugars k3 d10 k3, PS) it was 6%. For the sequence CTGAGATAAGAAGCAC (sugars k3 d10 k3, PS), the target mRNA inhibition (SK-MEL-28, 4 µM) came to 37%.

Turning to ACCCACACAAGTCTTA (sugars k3 d10 k3, PS), the target mRNA inhibition (SK-MEL-28, 4 µM) was -4%. As to TTTCTAATGGTGCTCC (sugars k3 d10 k3, PS), the target mRNA inhibition (MM.1R, 1 µM) was 4%. Regarding “AGGCACATCAATGTTT (sugars kdddddddddkekeke, PS)”, where the note is “MM.1R, 1 µM”, the target mRNA inhibition is -9% and 3%.

As to CAAGCTGGGCCTTGCC (sugars k3 d10 k3, PS), the target mRNA inhibition (SK-MEL-28, 4 µM) was 34%.

As to CCTGGGAGTAATAGTA (sugars k3 d10 k3, PS), the target mRNA inhibition (SK-MEL-28, 4 µM) came out at 53%. Regarding AGATTTACACCGTTGC (sugars k3 d10 k3, PS), where the note is “MM.1R, 1 µM”, the target mRNA inhibition was 30%.

Take TCTCCGCCTCGGCCGC (sugars k3 d10 k3, PS): the target mRNA inhibition (SK-MEL-28, 4 µM) came to 41%. On to “CAGTGACTTGCATCCA (sugars kdddddddddkekeke, PS)”, for which the target mRNA inhibition (MM.1R, 1 µM) came out at 19%.

In the case of CTAAGCTTGATAAAGG (sugars k3 d10 k3, PS), the target mRNA inhibition (SK-MEL-28, 4 µM) turned out to be 54%. As for GAGCATCAACAAAGCC (sugars k3 d10 k3, PS), the target mRNA inhibition (SK-MEL-28, 4 µM) is 58%. Take AAAATATCGCCCATGA (sugars k3 d10 k3, PS): under “SK-MEL-28, 4 µM”, the target mRNA inhibition was 41%. Turning to ATGGCAAAAGACCAAT (sugars k3 d10 k3, PS), the target mRNA inhibition (MM.1R, 1 µM) was -5%. With GTGATAGGTATACTTA (sugars k3 d10 k3, PS), for the setting “SK-MEL-28, 4 µM”, the target mRNA inhibition stood at 65%. Turning to TGATAGCTGAGCTGAT (sugars k3 d10 k3, PS), under “SK-MEL-28, 4 µM”, the target mRNA inhibition came to 37%. As to CAAACCCTACTGGGTA (sugars k3 d10 k3, PS), where the note is “SK-MEL-28, 4 µM”, the target mRNA inhibition was 32%. Same read-out and setting: in the case of CCTGGTCCAGGTTGCT (sugars k4 d8 k4, PS) it was 34%; in that of ACAGATAGTTAAGTAC (sugars k3 d10 k3, PS), 35%. TCATAGCTAGTTCATT (sugars k3 d10 k3, PS): the target mRNA inhibition (SK-MEL-28, 4 µM) amounted to 52%. Still for that read-out and setting: the same measure for ATAGATCTGTGGTAAT (sugars k3 d10 k3, PS): 38%; for CTAGATAACATGAGAG (sugars k3 d10 k3, PS): 53%. On to TGGGACATTGGTACGG (sugars k3 d10 k3, PS), for which the target mRNA inhibition is, setting by setting: (MM.1R, 0.074 µM) 4%; (MM.1R, 0.222 µM) 2%; (MM.1R, 0.666 µM) 13%; (MM.1R, 2 µM) 34%; (SK-MEL-28, 4 µM) 69%. In the case of TAGCAAATGGCAAGTT (sugars k3 d10 k3, PS), for the setting “SK-MEL-28, 4 µM”, the target mRNA inhibition stood at 17%. Consider ATGAGAACTTTGATGT (sugars k3 d10 k3, PS), for which, where the note is “SK-MEL-28, 4 µM”, the target mRNA inhibition was determined as 15%.

The record behind these values is the OligoGym collection.
